These results are taken from ChEMBL document CHEMBL3507680, “University of Dundee, Gates Library screen for HepG2 cell viability”.

A short description of the data set: Human HepG2 cell viability assay in 384 well format. The class given is toxicity, cell-based. Also on record: dose 125 nL, time 70.5 hour; cytotoxicity at 70.5 h: concentration not given beside the values. Particulars: HepG2 cells, read-out: Inhibition.
`C1CCC(OCCN2CCN(CCOC3CCCCC3)CC2)CC1`: the cytotoxicity at 70.5 h was -5.88%.

In the case of `CSc1ccc(-c2nc(CN3CCC(CN)C3)c(C)o2)cc1` (stereo not drawn), the cytotoxicity at 70.5 h was -3.18%.

`CCC(Nc1nc(C(C)C)nc2c1cnn2C)c1ccc(O)cc1` (stereo not drawn): the cytotoxicity at 70.5 h was 5.5%.

On to `Cc1noc(CN(C)Cc2cnc(N3CCOCC3)nc2)n1`, for which the cytotoxicity at 70.5 h is -6.57%.

For `CN(C)CC(=O)N1CCc2cccc(S(=O)(=O)N3CCOCC3)c2C1`, the cytotoxicity at 70.5 h is 0.694%.

Regarding `CN(C)Cc1nnc(C2CCN(c3ncccn3)CC2)n1C1CC1`, the cytotoxicity at 70.5 h was determined as 12.1%.

Turning to `COc1ccc(-n2c(COC(C)C)n[nH]c2=O)cc1`, the cytotoxicity at 70.5 h is -6.26%.

Consider `CCc1nc(CC2CN(c3ncnc4nc(C)cc(C)c34)CCO2)no1` (stereo not drawn), for which the cytotoxicity at 70.5 h is -19%.

As to `CCNC(=O)[C@@H]1C[C@@H](N)CN1C(=O)c1[nH]c2ccccc2c1CC`, the cytotoxicity at 70.5 h was 18%.

Turning to `O=S(=O)(NC1CCCN(c2ncccn2)C1)N1CCCCCC1` (stereo not drawn), the cytotoxicity at 70.5 h is -7.28%.

Consider `Cc1ccc(C(N)=O)c(N2Cc3cnc(C(C)(C)C)nc3C2)n1`, for which the cytotoxicity at 70.5 h is -11.7%.

As to `O=C(O)CC1COCCN1Cc1ccccc1-c1ccccc1` (stereo not drawn), the cytotoxicity at 70.5 h was determined as 14.8%.

Turning to `O=C(C1CCCC1)N1CCC(Nc2ccncn2)CC1`, the cytotoxicity at 70.5 h was -3.92%.

As for `Cc1nn(C)cc1Cn1c(=O)ccc2ccccc21`, the cytotoxicity at 70.5 h is -3.85%.

Regarding `CCc1nc(C)sc1CN1CC[C@](C)(O)[C@H](C)C1`, the cytotoxicity at 70.5 h was -2.71%.

Consider `Cc1nc[nH]c1-c1nccn1CCN1CCCC1=O`, for which the cytotoxicity at 70.5 h was determined as 24.3%.

As to `O=C(Cn1ccnc1)N1CCCC(OCc2cccnc2)C1` (stereo not drawn), the cytotoxicity at 70.5 h is 29.5%.

Take `COCC(=O)N1CCCC(C(=O)N(C)CCn2ccnc2C)C1` (stereo not drawn): the cytotoxicity at 70.5 h came to 3.1%.

Turning to `Cc1noc(-c2ccnc(Oc3cccc(CN4CCCC4)c3F)c2)n1`, the cytotoxicity at 70.5 h is -14.1%.

For the compound `COC(=O)CCCC(=O)N(C)CC1Cc2ccccc2CN1C` (stereo not drawn), the cytotoxicity at 70.5 h was -8.82%.

For the compound `COc1cc(N2C[C@@H](C)[C@](O)(C3CC3)C2)nc(N)n1`, the cytotoxicity at 70.5 h was -3.32%.

Take `O=C1NCCN(C(=O)CCN2CCCO2)C1c1cccc(F)c1` (stereo not drawn): the cytotoxicity at 70.5 h was found to be 4.41%.

Turning to `c1ccc(CN2C[C@@H]3CC[C@H](C2)N(Cc2nnc(C4CC4)o2)C3)cc1`, the cytotoxicity at 70.5 h is -8.78%.

For the compound `CN1CC2(CCN(c3nc(N)nc4c3CCNC4)CC2)OC1=O`, the cytotoxicity at 70.5 h is -8.95%.

In the case of `CCOC(=O)N[C@H]1C[C@@H](C(=O)NCc2cccc(Cl)c2)N(C)C1`, the cytotoxicity at 70.5 h is -20.9%.

In the case of `CCCC1COCCN1Cc1ccc(C(=O)O)cc1` (stereo not drawn), the cytotoxicity at 70.5 h was -4.7%.

For the compound `CC(=O)NC1CCN(c2nc(N(C)C)nc3c2CCN(C(C)=O)C3)CC1`, the cytotoxicity at 70.5 h is -7.29%.

As for `Cc1c[nH]c(CN2CCCCC2CCc2cccc(O)c2)c(C)c1=O` (stereo not drawn), the cytotoxicity at 70.5 h is -5.58%.

Consider `CN(Cc1ccc2c(c1)OCO2)C(=O)c1ccc(C2CCCO2)s1` (stereo not drawn), for which the cytotoxicity at 70.5 h is -6.85%.

Take `COc1cccc(CNC2CCSC2)c1OC` (stereo not drawn): the cytotoxicity at 70.5 h was -7.09%.

On to `CN(Cc1ccccc1CN1CCCC1)c1ncnc2[nH]ccc12`, for which the cytotoxicity at 70.5 h was -4.3%.

As for `CN1CCC(NN2CCN(C)CC2)CC1`, the cytotoxicity at 70.5 h was -17.5%.

Regarding `CC1CCC(NCCCN2CCOCC2)CC1` (stereo not drawn), the cytotoxicity at 70.5 h is -6.93%.

`Cc1noc(CN(C)C(=O)CCn2cnc3ccccc32)n1`: the cytotoxicity at 70.5 h was -13.9%.

`COc1ccc(CCC(C)Nc2cccc(SC)c2)cc1` (stereo not drawn): the cytotoxicity at 70.5 h was determined as 23.6%.

`CCOCc1nc2c(c(NC(COC)c3ccccn3)n1)CCNCC2` (stereo not drawn): the cytotoxicity at 70.5 h is -3.42%.

Consider `CNC(=O)[C@@H]1C[C@@H](N)CN1Cc1ccc2cccc(OC)c2n1`, for which the cytotoxicity at 70.5 h is -2.31%.

With `CSCC[C@@H](CO)n1ccnc1-c1ccncc1`, the cytotoxicity at 70.5 h is -10.3%.

Turning to `Cc1ccsc1-c1nccn1CCN1CCCOC1=O`, the cytotoxicity at 70.5 h is -9.87%.

Take `CCN1CCN(C(=O)c2ccc3c(c2)NC(=O)CN3)[C@H]2CS(=O)(=O)C[C@H]21`: the cytotoxicity at 70.5 h was -8.61%.

As for `CC(C)[C@@H]1CN(C(=O)C2(c3ccccc3)CC2)C[C@H]1C(=O)O`, the cytotoxicity at 70.5 h was -3.69%.

In the case of `COc1ncc(CN2CCC3(CCCN(CC4CCCCC4)C3)C2)cn1` (stereo not drawn), the cytotoxicity at 70.5 h was 26.8%.

On to `CCNc1ncc(C(=O)NCc2cccc(OC(F)(F)F)c2)cn1`, for which the cytotoxicity at 70.5 h is -16.5%.

On to `c1ccc(COCCN2CCc3[nH]cnc3C2c2ccoc2)cc1` (stereo not drawn), for which the cytotoxicity at 70.5 h was 26%.

For `COc1ccc(-n2cnnc2CC2CCNCC2)cc1`, the cytotoxicity at 70.5 h was found to be 1.1%.

As for `CCN1CCc2[nH]cnc2C12CCN(c1ccc(Cl)cn1)CC2`, the cytotoxicity at 70.5 h was -4.3%.

For the compound `CCCN1CC2(CCN(C)CC2)CC1C(=O)NCc1cc(C)nn1C` (stereo not drawn), the cytotoxicity at 70.5 h was -12.4%.

Take `CCC(=O)Nc1cccc(OCC(=O)N2CC=CC2C(C)C)c1` (stereo not drawn): the cytotoxicity at 70.5 h is -22.1%.

In the case of `Cc1nonc1CN(C)c1nc(-c2ccco2)nc2c1CCN(C)CC2`, the cytotoxicity at 70.5 h is -8.33%.

Consider `Cn1nnnc1SCCNC(=O)c1c[nH]nc1C1CCCCC1`, for which the cytotoxicity at 70.5 h was -9.31%.

In the case of `O=C(CCc1nc(Cl)n[nH]1)N1C[C@@H](CN2CCCCCC2)[C@@H](CO)C1`, the cytotoxicity at 70.5 h was -4.12%.

On to `CCn1ccnc1C1CCCN(C(=O)c2sc(C)nc2C)C1` (stereo not drawn), for which the cytotoxicity at 70.5 h is -7.2%.

As for `Cc1ccsc1CN(CCN(C)C)C(=O)C1=NNC(=O)CC1`, the cytotoxicity at 70.5 h was -9.85%.

`Cc1nc(N2CCCC(C)C2)nc2cc(S(C)(=O)=O)ccc12` (stereo not drawn): the cytotoxicity at 70.5 h was -2.18%.

As for `CCn1cc(C2=CCN(CCCOc3ccccc3)CC2)cn1`, the cytotoxicity at 70.5 h stood at 0.137%.

As to `CC1(C)OC(=O)N(CCOc2ccc(F)cc2)C1=O`, the cytotoxicity at 70.5 h is -4.69%.

Take `Cc1cc(CN(C)C(=O)C(c2cccnc2)N2CCOCC2)n[nH]1` (stereo not drawn): the cytotoxicity at 70.5 h was -10.1%.

`CC(Oc1ccc2c(c1)OCO2)C(=O)N1CCC(c2ncc[nH]2)CC1` (stereo not drawn): the cytotoxicity at 70.5 h is -8.64%.

Regarding `O=C(NC1CCCC1)N1C[C@H]2CN(c3ccccn3)C[C@@]2(C(=O)O)C1`, the cytotoxicity at 70.5 h is 6.72%.

In the case of `Cc1nc(N(C)C)ncc1C(=O)N(Cc1ccncc1)CC1CCCO1` (stereo not drawn), the cytotoxicity at 70.5 h is -4.9%.

With `CCc1nnc(CN(C)Cc2cccc(C(=O)Nc3nccs3)c2)o1`, the cytotoxicity at 70.5 h is -1.25%.

Regarding `NCC1Cc2cc(-c3nccc(N4CCC(O)CC4)n3)cc(F)c2O1` (stereo not drawn), the cytotoxicity at 70.5 h was 6.33%.

`Cc1ccccc1CN1CCN(C(=O)CN2CCOC2=O)CC1`: the cytotoxicity at 70.5 h was -6.85%.

Consider `Cc1nc(CN2CCC(c3nc4ccccc4n3C)CC2)co1`, for which the cytotoxicity at 70.5 h is -24.4%.

Consider `CN1C(=O)[C@H]2CC[C@@H]1CN(Cc1cccc(OCc3ccccn3)c1)C2`, for which the cytotoxicity at 70.5 h was -11.5%.

Regarding `CCc1nn(C)c(Cl)c1CN1CCN(c2ccc(Cl)nn2)CC1`, the cytotoxicity at 70.5 h is 13.1%.

In the case of `Cc1ccc(-c2cc(-c3c(C)nn(CCO)c3C)c(C#N)c(N)n2)cc1`, the cytotoxicity at 70.5 h worked out at 0.809%.

Consider `CC(C)CN1CC2(CCN(C(=O)C3CNC(=O)N3)CC2)CC1=O` (stereo not drawn), for which the cytotoxicity at 70.5 h was -9.7%.

`CCc1ccc2nc(C)cc(C(=O)N3C[C@H]4CCC[C@@]4(CO)C3)c2c1`: the cytotoxicity at 70.5 h was -8.92%.

In the case of `O=C(NCC1CCS(=O)(=O)C1)c1ccc2cccc(Cl)c2n1` (stereo not drawn), the cytotoxicity at 70.5 h is -5.5%.

`Fc1ccc(C2(c3noc(CCN4CCCCO4)n3)CCOC2)cc1` (stereo not drawn): the cytotoxicity at 70.5 h is -11.7%.

`O=C1NCC(c2ccc(F)cc2)Cc2[nH]c(CCN3CCCC3)nc21` (stereo not drawn): the cytotoxicity at 70.5 h is -20.9%.

Consider `COCCN(Cc1nccs1)C(=O)c1cc(-c2ccc(C)o2)n[nH]1`, for which the cytotoxicity at 70.5 h is -11.2%.

Take `Cc1cc(NCc2ccc(CO)cc2)n2nc(C)cc2n1`: the cytotoxicity at 70.5 h was -0.853%.

On to `CCCc1cncnc1N1CCC(NCc2cc3ccccc3[nH]2)CC1`, for which the cytotoxicity at 70.5 h worked out at 8.09%.

For `Cc1cc(NC(C)c2csc(C)n2)n2nc(C)c(C)c2n1` (stereo not drawn), the cytotoxicity at 70.5 h was 5.97%.

For the compound `CN(CC1(CO)CCCC1)[C@@H]1c2ccccc2C2(CCNCC2)[C@H]1O`, the cytotoxicity at 70.5 h was -3.86%.

Consider `CC(=O)c1c(C)nn(CC(=O)N2Cc3cnc(C(C)(C)C)nc3C2)c1C`, for which the cytotoxicity at 70.5 h is -5.26%.

For the compound `COCCOCC(=O)N1CCC(O)(c2ccc3nc(C)ccc3c2)CC1`, the cytotoxicity at 70.5 h is -5.95%.

As to `CCCc1cc(C(=O)N(C)Cc2cnn(-c3cccc(OC)c3)c2)[nH]n1`, the cytotoxicity at 70.5 h was -6.08%.

In the case of `CN(Cc1cc(C2CC2)on1)C(=O)CN1C(=O)OC(C)(C)C1=O`, the cytotoxicity at 70.5 h stood at 0.377%.

As to `OC[C@H]1CN(Cc2c(Cl)cccc2Cl)C[C@H]1CN1CCCCC1`, the cytotoxicity at 70.5 h turned out to be 7.58%.

Consider `Fc1ccccc1CN1CCCC(NC2CCOCC2)C1` (stereo not drawn), for which the cytotoxicity at 70.5 h is -9.48%.

Turning to `CCc1nc(C)sc1CN1C[C@@H](C)[C@@](C)(O)C1`, the cytotoxicity at 70.5 h was -11.2%.

Take `COc1ccccc1-n1cc(C(=O)NCCCn2nc(C)nc2C)cn1`: the cytotoxicity at 70.5 h was -9.68%.

Turning to `COCCN1CCCC2(CCN(c3ncc(Cl)cc3Cl)C2)C1=O` (stereo not drawn), the cytotoxicity at 70.5 h is -11%.

As for `Cc1cc(C(F)(F)F)nc(CCNc2nc(C)nc3c2cnn3C)n1`, the cytotoxicity at 70.5 h is -4.44%.

`Cc1nccn1C1(C(=O)O)CCN(Cc2ccc3nsnc3c2)CC1`: the cytotoxicity at 70.5 h was -7%.

Consider `COc1ccc(C(C(=O)O)N2CCC(O)(c3cccnc3)CC2)cc1Cl` (stereo not drawn), for which the cytotoxicity at 70.5 h was -9.89%.

On to `COCCN1CC(C(=O)N(C)Cc2csc(C)n2)CC1=O` (stereo not drawn), for which the cytotoxicity at 70.5 h amounted to 9.18%.

For `CC1=CCN(C(=O)Nc2ccccc2N2CCOC2=O)CC1`, the cytotoxicity at 70.5 h was found to be 0.848%.

On to `CCc1ncc(C(=O)NCCN(C)S(C)(=O)=O)cn1`, for which the cytotoxicity at 70.5 h worked out at 17.2%.

With `CC(C)N(C)CC(=O)N1CCCC(c2ccc(C(=O)O)cc2)C1` (stereo not drawn), the cytotoxicity at 70.5 h is -5.3%.

For `COc1nc2c(cc1C(=O)N1C[C@H](N)C[C@H]1C(=O)NC(C)C)CCC2`, the cytotoxicity at 70.5 h is -4.1%.

As for `O=C(c1ccc(F)c(Cl)c1)N1C[C@@H]2CC[C@H](C1)N(Cc1ccccc1)C2`, the cytotoxicity at 70.5 h was -5.41%.

Consider `CN(CCO)Cc1nnc(C2CCN(C(=O)C(C)(C)C)CC2)n1C`, for which the cytotoxicity at 70.5 h is -4.92%.

For `COc1cccc(N2CCN(C(=O)C(O)c3cccc(Cl)c3)CC2=O)c1` (stereo not drawn), the cytotoxicity at 70.5 h is 6.54%.

Turning to `Cn1ncc2c(N3CCN(C(N)=O)CC3)nc(C3CCCC3)nc21`, the cytotoxicity at 70.5 h is 16.3%.
